# Measurements published in patent US20190231757A1, “COMBINATION OF SPLEEN TYROSINE KINASE INHIBITORS AND OTHER THERAPEUTIC AGENTS” (Takeda Pharmaceutical Company Limited, priority 2016, published 2019).
# Columns and labels:
# Assay type in all cases: in vivo, mouse
# [1] = tested on: OCI-Ly10 human DLBCL xenografts; assay: Antitumor activity in SCID mice bearing OCI-Ly10 human DLBCL xenografts, ibrutinib or bendamustine combination (Example 5); conditions: Day 21, Compound A 60 mg/kg PO QD, ibrutinib 6 mg/kg PO QD, bendamustine 1 mg/kg IV BIW (6 doses), alone or combined with Compound A
# [2] = tested on: WSU-Luc human lymphoma xenografts; assay: Antitumor activity in SCID mice bearing WSU-Luc human lymphoma xenografts, ibrutinib combination (Example 12); conditions: Day 20, alone or combined
# Protocol: The study ended on Day 20 of dosing.
# (§1) Tumor growth was monitored with vernier calipers. Tumor volume was calculated using the formula V=W^2×L/2, where V=volume, W=width and L=length of the tumor. When the mean tumor volume reached approximately 190 mm^3, the animals were randomized into treatment groups (n=8/group). […] Tumor growth and body weight were measured twice per week. Tumor growth inhibition and body weight change were calculated on Day 20 of treatment.
# (§2) Statistical analysis: The differences in the tumor growth trends over time between pairs of treatment groups were assessed using linear mixed effects regression models. These models account for the fact that each animal was measured at multiple time points. A separate model was fit for each comparison, and the areas under the curve (AUC) for each treatment group were calculated using the predicted values from the model. The percent decrease in AUC (dAUC) relative to the reference group was then calculated.
# The change in AUC relative to the control was calculated for both single agent treatment groups as well as the combination group. […] The results can be divided into four categories: synergistic, additive, sub-additive, and antagonistic.
# (§3) For this analysis, a T/C ratio was calculated for each animal by dividing the tumor measurement for the given animal by the mean tumor measurement across all control animals. The T/C ratios across a treatment group were compared to the T/C ratios of the control group using a two-tailed Welch's t-test.
# [3] = Body weight and tolerability, WSU-Luc ibrutinib study (Example 12); conditions: Compound A 60 mg/kg; ibrutinib 20 mg/kg; alone or combined
# Protocol: as §1
# [4] = Body weight and tolerability, OCI-LY10 gemcitabine study (Example 7)
# Protocol: (§4) Experimental design: Female CB17 SCID mice (Taconic Biosciences; weight at treatment start was 20 g) were inoculated subcutaneously in the flank (cell suspension) with 4.0×10^6 OCI-Ly10 cells. Tumor volume was calculated using the formula V=W^2×L/2, where V=volume, W=width and L=length of the tumor. When the mean tumor volume reached approximately 199 mm^3, the animals were randomized into 6 treatment groups (n=8/group). […] Tumor growth and body weight were measured twice per week. Tumor growth inhibition and body weight change were calculated on Day 21 of treatment.
# [5] = Body weight and tolerability, TMD8 ABT-199/gemcitabine study (Example 9); conditions: alone or combined with Compound A; for % BW Change (Day Maximum): Compound A 60 mg/kg PO QD 14 d, ABT-199 25 mg/kg PO QD 14 d, gemcitabine 5 mg/kg IP Q3D x4; for Number of animals removed: Compound A 60 mg/kg, ABT-199 25 mg/kg, gemcitabine 5 mg/kg
# Protocol: as §4, with “about 19” for “20”, “5.0×10^6 TMD8” for “4.0×10^6 OCI-Ly10”, “cells. Tumor growth was monitored with vernier calipers.” for “cells.”, “245” for “199”, “14” for “21”
# [6] = Body weight and tolerability, TMD8 gemcitabine study (Example 8); conditions: alone or combined
# Protocol: as §4, with “19” for “20”, “5.0×10^6 TMD8” for “4.0×10^6 OCI-Ly10”, “cells. Tumor growth was monitored with vernier calipers.” for “cells.”, “215” for “199”, “into” for “into 6”, “14” for “21”
# [7] = tested on: OCI-LY10 xenografts; assay: Antitumor activity in CB17 SCID mice bearing OCI-LY10 xenografts, gemcitabine combination (Example 7); conditions: Day 21
# Protocol: Tumor growth inhibition was calculated on Day 21 of the study. The last measurement was taken on Day 42 of the study.
# as §4
# as §2, with “calculated. […] Further details regarding pairwise comparisons are provided in the Example 2.” for “calculated.”
# (§5) Drug combinations were assessed for synergy using observed AUC values. The change in AUC relative to the control was calculated for both single agent treatment groups as well as the combination group. The interaction between the two compounds was then assessed by comparing the change in AUC observed in the combination group to the sum of the changes observed in both single agents. The results can be divided into four categories: synergistic, additive, sub-additive, and antagonistic. Further details regarding combination analyses are provided in the Example 2.
# as §3, with “Once a final analysis was selected, the tumor measurements observed on a date pre-specified by the researcher (typically the last day of treatment) were analyzed to assess tumor growth inhibition. For” for “For”
# [8] = tested on: TMD8 DLBCL xenografts; assay: Antitumor activity in CB17 SCID mice bearing TMD8 DLBCL xenografts, ABT-199 or gemcitabine combination (Example 9); conditions: Day 14, alone or combined with Compound A; for TGI (%): Compound A 60 mg/kg PO QD, ABT-199 25 mg/kg PO QD, gemcitabine 5 mg/kg IP Q3D x4; for Mean Tumor Volume (mm^3) ± SEM / T/C: Compound A 60 mg/kg, ABT-199 25 mg/kg, gemcitabine 5 mg/kg
# Protocol: Tumor growth inhibition was calculated on Day 14 of the study. The last measurement was taken on Day 29 of the study.
# as §4, with “about 19” for “20”, “5.0×10^6 TMD8” for “4.0×10^6 OCI-Ly10”, “cells. Tumor growth was monitored with vernier calipers.” for “cells.”, “245” for “199”, “14” for “21”
# as §2, with “calculated. […] Further details regarding pairwise comparisons are provided in the Example 2.” for “calculated.”
# as §5
# as §3, with “Once a final analysis was selected, the tumor measurements observed on a date pre-specified by the researcher (typically the last day of treatment) were analyzed to assess tumor growth inhibition. For” for “For”
# [9] = tested on: TMD8 DLBCL xenografts; assay: Antitumor activity in CB17 SCID mice bearing TMD8 DLBCL xenografts, gemcitabine combination (Example 8); conditions: Day 14, alone or combined
# Protocol: Tumor growth inhibition was calculated on Day 14 of the study. The last measurement was taken on Day 40 of the study.
# as §4, with “19” for “20”, “5.0×10^6 TMD8” for “4.0×10^6 OCI-Ly10”, “cells. Tumor growth was monitored with vernier calipers.” for “cells.”, “215” for “199”, “into” for “into 6”, “14” for “21”
# as §2, with “calculated. […] Further details regarding pairwise comparisons are provided in the Example 2.” for “calculated.”
# as §5, with “analysis” for “analyses”
# as §3, with “Once a final analysis was selected, the tumor measurements observed on a date pre-specified by the researcher (typically the last day of treatment) were analyzed to assess tumor growth inhibition. For” for “For”
# [10] = tested on: Ly10 human lymphoma xenografts; assay: Antitumor activity in SCID mice bearing Ly10 xenografts, rituximab combination (Example 13); conditions: alone or combined
# [11] = tested on: OCI-Ly10 human lymphoma xenografts; assay: Antitumor activity in SCID mice bearing OCI-Ly10 human lymphoma xenografts, bendamustine and rituximab (Example 6); conditions: Day 21; Compound A 30 mg/kg PO QD x21; bendamustine 1 mg/kg IV BIW; rituximab 1 mg/kg IV QW x3; alone or combined
# [12] = tested on: Ly19 human lymphoma xenografts; assay: Antitumor activity in SCID mice bearing Ly19 xenografts, rituximab combination (Example 14); conditions: alone or combined
# [13] = Body weight and tolerability, OCI-LY10 ABT-199 study (Example 11)
# Protocol: as §4, with “(Charles River Laboratories, about 21 g” for “(Taconic Biosciences; weight”, “start)” for “start was 20 g)”, “cells. Tumor growth was monitored with vernier calipers.” for “cells.”, “175” for “199”, “into” for “into 6”, “(n=5/group).” for “(n=8/group).”
# [14] = tested on: OCI-LY 10 xenografts; assay: Antitumor activity in CB17 SCID mice bearing OCI-LY10 xenografts, ABT-199 combination (Example 11); conditions: Day 21
# Protocol: Tumor growth inhibition was calculated on Day 21 of the study. The last measurement was taken on Day 46 of the study.
# as §4, with “(Charles River Laboratories, about 21 g” for “(Taconic Biosciences; weight”, “start)” for “start was 20 g)”, “cells. Tumor growth was monitored with vernier calipers.” for “cells.”, “175” for “199”, “into” for “into 6”, “(n=5/group).” for “(n=8/group).”
# as §2, with “calculated. […] Further details regarding pairwise comparisons are provided in the Example 2.” for “calculated.”
# as §5
# as §3, with “Once a final analysis was selected, the tumor measurements observed on a date pre-specified by the researcher (typically the last day of treatment) were analyzed to assess tumor growth inhibition. For” for “For”
# [15] = Compound A 60 mg/kg, ibrutinib 20 mg/kg
# [16] = Compound A 60 mg/kg, gemcitabine 2.5 mg/kg, alone or combined
# [17] = gemcitabine 5 mg/kg, alone or with Compound A 60 mg/kg
# [18] = Compound A 60 mg/kg, gemcitabine 5 mg/kg
# [19] = Compound A 60 mg/kg PO QD, gemcitabine 2.5 mg/kg IP Q3D, alone or combined
# [20] = gemcitabine 5 mg/kg IP Q3D, alone or with Compound A 60 mg/kg PO QD
# [21] = Compound A 60 mg/kg PO QD, gemcitabine 5 mg/kg IP Q3D x4
# [22] = Day 21, Compound A 60 mg/kg PO QD x21, rituximab 1 mg/kg IV QW x3
# [23] = Day 14, Compound A 60 mg/kg PO QD x14, rituximab 10 mg/kg IV QW x2
# [24] = ABT-199 25 mg/kg, alone or with Compound A 60 mg/kg
# [25] = Compound A 60 mg/kg, ABT-199 12.5 mg/kg, alone or combined
compound,measurement,setting,value
C=CC(=O)N1CCC[C@@H](n2nc(-c3ccc(Oc4ccccc4)cc3)c3c(N)ncnc32)C1 [ibrutinib],TGI,[1],18%
same,TGI,[1]; listed as Ibrutinib,18.0%
same,TGI (%),"[2]; Compound A 60 mg/kg PO QD, ibrutinib 20 mg/kg PO QD",0.5%
same,Mean Tumor Volume (mm^3) ± SEM,[2]; [15],"1,085.2 ± 109.9 mm^3"
same,T/C,[2]; [15],1.00
same,Number of animals removed,[3],0
Nc1ccn([C@@H]2O[C@H](CO)[C@@H](O)C2(F)F)c(=O)n1 [gemcitabine],% BW Change (Day Maximum),"[4]; Compound A 60 mg/kg PO QD 21 d, gemcitabine 2.5 mg/kg IP Q3D (4 doses), alone or combined",7.5 (21) %
same,Number of animals removed,[4]; [16],0
same,% BW Change (Day Maximum),"[4]; gemcitabine 5 mg/kg IP Q3D (4 doses), alone or with Compound A 60 mg/kg PO QD",−1.4 (3) %
same,Number of animals removed,[4]; [17],0
same,% BW Change (Day Maximum),[5],−0.2 (11) %
same,Number of animals removed,[5],0
same,% BW Change (Day Maximum),"[6]; Compound A 60 mg/kg PO QD 14 d, gemcitabine 5 mg/kg IP Q3D x4",−0.1 (4) %
same,Number of animals removed,[6]; [18],0
same,Mean Tumor Volume (mm^3) ± SEM,[7]; [19],561.7 ± 52.5 mm^3
same,TGI (%),[7]; [19],52.6%
same,T/C,[7]; [16],0.47
same,Mean Tumor Volume (mm^3) ± SEM,[7]; [20],331.3 ± 57.6 mm^3
same,TGI (%),[7]; [20],72.1%
same,T/C,[7]; [17],0.28
same,TGI (%),[8],70.3%
same,Mean Tumor Volume (mm^3) ± SEM,[8],440.2 ± 70.9 mm^3
same,T/C,[8],0.30
same,Mean Tumor Volume (mm^3) ± SEM,[9]; [21],294.7 ± 36.5 mm^3
same,TGI (%),[9]; [21],67.1%
same,T/C,[9]; [18],0.33
rituximab,Mean Tumor Volume (mm^3) ± SEM at Day 21,[10]; [22],301.8 ± 30.8 mm^3
same,TGI (%),[10]; [22],66.7%
same,dAUC,"[10]; vs vehicle, Compound A 60 mg/kg, rituximab 1 mg/kg",77.6
same,TGI,[11],33.4%
same,Mean Tumor Volume (mm^3) ± SEM at Day 14,[12]; [23],516.8 ± 113.3 mm^3
same,TGI (%),[12]; [23],79.5%
same,dAUC,"[12]; vs vehicle, Compound A 60 mg/kg, rituximab 10 mg/kg",61.8
"CC1(C)CCC(CN2CCN(c3ccc(C(=O)NS(=O)(=O)c4ccc(NCC5CCOCC5)c([N+](=O)[O-])c4)c(Oc4cnc5[nH]ccc5c4)c3)CC2)=C(c2ccc(Cl)cc2)C1 [ABT-199, venetoclax]",% BW Change (Day Maximum),"[13]; ABT-199 25 mg/kg PO QD 21 d, alone or with Compound A 60 mg/kg PO QD",−1.5 (14) %
same,Number of animals removed,[13]; [24],1
same,% BW Change (Day Maximum),"[13]; Compound A 60 mg/kg PO QD 21 d, ABT-199 12.5 mg/kg PO QD 21 d, alone or combined",4.6 (21) %
same,Number of animals removed,[13]; [25],0
same,% BW Change (Day Maximum),[5],−0.4 (11) %
same,Number of animals removed,[5],0
same,TGI (%),"[14]; ABT-199 25 mg/kg PO QD, alone or with Compound A 60 mg/kg PO QD",9.2%
same,Mean Tumor Volume (mm^3) ± SEM,[14]; [24],950.3 ± 182.1 mm^3
same,T/C,[14]; [24],0.91
same,TGI (%),"[14]; Compound A 60 mg/kg PO QD, ABT-199 12.5 mg/kg PO QD, alone or combined",−0.4%
same,Mean Tumor Volume (mm^3) ± SEM,[14]; [25],"1,050.6 ± 221.4 mm^3"
same,T/C,[14]; [25],1.00
same,TGI (%),[8],29.1%
same,Mean Tumor Volume (mm^3) ± SEM,[8],"1,048.9 ± 136.1 mm^3"
same,T/C,[8],0.71
